{"source": "patent US10428044B2", "about": "“3-amino-1,5,6,7-tetrahydro-4H-indol-4-ones” (Bayer Pharma Aktiengesellschaft, priority 2014, dated 2019)", "molecular_target": "(recombinant) catalytic domain of human Bub1 (amino acids 704-1085) (Homo sapiens (Human), UniProt O43683)", "sequence (O43683 704-1085)": "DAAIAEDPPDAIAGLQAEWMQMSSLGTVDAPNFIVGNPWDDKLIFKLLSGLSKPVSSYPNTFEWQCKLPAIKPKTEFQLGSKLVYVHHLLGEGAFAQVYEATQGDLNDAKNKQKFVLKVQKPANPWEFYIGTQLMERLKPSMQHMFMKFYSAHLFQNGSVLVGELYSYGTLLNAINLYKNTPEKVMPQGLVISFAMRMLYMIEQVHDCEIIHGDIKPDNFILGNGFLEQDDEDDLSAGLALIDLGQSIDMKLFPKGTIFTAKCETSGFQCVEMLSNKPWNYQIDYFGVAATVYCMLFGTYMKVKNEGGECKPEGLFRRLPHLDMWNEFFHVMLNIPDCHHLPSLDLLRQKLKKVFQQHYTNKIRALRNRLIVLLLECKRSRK", "assay": "Bub1 kinase assay (TR-FRET)", "type": "biochemical", "conditions": "ATP 10 μM final, peptide substrate 1 μM final, 60 min at 22° C., read-out: Biological Assay: Bub1 kinase assay median IC50", "in_short": "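Compounds were serially diluted 1:3.4 from 2 mM DMSO stocks and incubated with the enzyme reaction for 60 min at 22° C. The reaction was stopped with EDTA, and biotinylated peptide phosphorylation was read by TR-FRET using Eu anti-mouse IgG, anti-phosphoserine antibody and streptavidin-XL665. IC50 was fitted by 4-parameter logistic to inhibition normalized to no-inhibitor and no-enzyme controls.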", "note": "Values joined by “and” are separate entries in the source; they are usually repeats but may differ in a detail not shown here. Identical values can stand only once."}
{"compound": "CC1(C)CC(=O)c2c([nH]c(-c3ccncc3)c2Nc2cccc(-c3ccco3)c2)C1", "note": "[Example 419, 3-{[3-(furan-2-yl)phenyl]amino}-6,6-dimethyl-2-(pyridin-4-yl)-1,5,6,7-tetrahydro-4H-indol-4-one]", "values": [{"measurement": "IC50", "value": 11.8, "unit": "nM"}]}
{"compound": "O=C1CCCc2[nH]c(-c3ccnc(NCc4ccc(F)cc4)c3)c(Nc3ccccc3)c21", "note": "[Example 499, 2-{2-[(4-fluorobenzyl)amino]pyridin-4-yl}-3-(phenylamino)-1,5,6,7-tetrahydro-4H-indol-4-one]", "values": [{"measurement": "IC50", "value": 830, "unit": "nM"}]}
{"compound": "Cc1cc(-c2[nH]c3c(c2Nc2ccccc2)C(=O)CC(C)(C)C3)ccn1", "note": "[Example 149, 6,6-dimethyl-2-(2-methylpyridin-4-yl)-3-(phenylamino)-1,5,6,7-tetrahydro-4H-indol-4-one]", "values": [{"measurement": "IC50", "value": 94.1, "unit": "nM"}]}
{"compound": "Cc1cccc(Nc2c(-c3ccncc3)[nH]c3c2C(=O)CC(C)(C)C3)c1CO", "note": "[Example 483, 3-{[2-(hydroxymethyl)-3-methylphenyl]amino}-6,6-dimethyl-2-(pyridin-4-yl)-1,5,6,7-tetrahydro-4H-indol-4-one]", "values": [{"measurement": "IC50", "value": 9.48, "unit": "nM"}]}
{"compound": "C[C@@H](C(=O)Nc1cc(-c2[nH]c3c(c2Nc2ccccc2)C(=O)CCC3)ccn1)N(C)C(=O)OC(C)(C)C", "note": "[Example 303, tert-butyl methyl[(2S)-1-oxo-1-({4-[4-oxo-3-(phenylamino)-4,5,6,7-tetrahydro-1H-indol-2-yl]pyridin-2-yl}amino)propan-2-yl]carbamate]", "values": [{"measurement": "IC50", "value": 1410, "unit": "nM"}]}
{"compound": "CC1(C)CC(=O)c2c([nH]c(-c3ccncc3O)c2Nc2ccccc2)C1", "note": "[Example 464, 3-anilino-2-(3-hydroxypyridin-4-yl)-6,6-dimethyl-1,5,6,7-tetrahydro-4H-indol-4-one]", "values": [{"measurement": "IC50", "value": 58.9, "unit": "nM"}]}
{"compound": "COc1ccc(Nc2c(-c3ccncc3)[nH]c3c2C(=O)CC(C)(C)C3)c(OC)c1", "note": "[Example 62, 3-[(2,4-dimethoxyphenyl)amino]-6,6-dimethyl-2-(pyridin-4-yl)-1,5,6,7-tetrahydro-4H-indol-4-one]", "values": [{"measurement": "IC50", "value": 167, "unit": "nM"}]}
{"compound": "CCCNC(=S)Nc1cc(-c2[nH]c3c(c2Nc2ccccc2)C(=O)CCC3)ccn1", "note": "[Example 399, 1-{4-[4-oxo-3-(phenylamino)-4,5,6,7-tetrahydro-1H-indol-2-yl]pyridin-2-yl}-3-propylthiourea]", "values": [{"measurement": "IC50", "value": 292, "unit": "nM"}]}
{"compound": "O=C1CCCc2[nH]c(-c3ccncc3OCC3CC3)c(Nc3ccccc3)c21", "note": "[Example 455, 2-[3-(cyclopropylmethoxy)pyridin-4-yl]-3-(phenylamino)-1,5,6,7-tetrahydro-4H-indol-4-one]", "values": [{"measurement": "IC50", "value": 24.4, "unit": "nM"}]}
{"compound": "CCCOc1cnccc1-c1[nH]c2c(c1Nc1ccccc1)C(=O)CCC2", "note": "[Example 456, 3-(phenylamino)-2-(3-propoxypyridin-4-yl)-1,5,6,7-tetrahydro-4H-indol-4-one]", "values": [{"measurement": "IC50", "value": 73.3, "unit": "nM"}]}
{"compound": "O=C(Nc1cc(-c2[nH]c3c(c2Nc2ccccc2)C(=O)CC2(CC2)C3)ccn1)c1cocn1", "note": "[Example 470, N-{4-[4′-oxo-3′-(phenylamino)-1′,4′,5′,7′-tetrahydrospiro[cyclopropane-1,6′-indol]-2′-yl]pyridin-2-yl}-1,3-oxazole-4-carboxamide]", "values": [{"measurement": "IC50", "value": 4.49, "unit": "nM"}]}
{"compound": "COc1ccc(Cn2cc(C(=O)Nc3cc(-c4[nH]c5c(c4Nc4ccccc4)C(=O)CC(C)(C)C5)ccn3)cn2)cc1", "note": "[Example 479, N-{4-[6,6-dimethyl-4-oxo-3-(phenylamino)-4,5,6,7-tetrahydro-1H-indol-2-yl]pyridin-2-yl}-1-(4-methoxybenzyl)-1H-pyrazole-4-carboxamide]", "values": [{"measurement": "IC50", "value": 5.09, "unit": "nM"}]}
{"compound": "O=C1CCCc2[nH]c(-c3ccncc3)c(Nc3ccccn3)c21", "note": "[Example 503, 2-(pyridin-4-yl)-3-(pyridin-2-ylamino)-1,5,6,7-tetrahydro-4H-indol-4-one]", "values": [{"measurement": "IC50", "value": 36.1, "unit": "nM"}]}
{"compound": "O=C(Cc1nccs1)Nc1cc(-c2[nH]c3c(c2Nc2ccccc2)C(=O)CCC3)ccn1", "note": "[Example 285, N-{4-[4-oxo-3-(phenylamino)-4,5,6,7-tetrahydro-1H-indol-2-yl]pyridin-2-yl}-2-(1,3-thiazol-2-yl)acetamide]", "values": [{"measurement": "IC50", "value": 30.8, "unit": "nM"}]}
{"compound": "CC(C)C1CC(=O)c2c([nH]c(-c3ccncc3)c2Nc2ccccc2)C1", "note": "(single isomer, unassigned) [Example 18, 3-(phenylamino)-6-(propan-2-yl)-2-(pyridin-4-yl)-1,5,6,7-tetrahydro-4H-indol-4-one]", "values": [{"measurement": "IC50", "value": 5.09, "unit": "nM"}]}
{"compound": "O=C(NCC(F)(F)F)Nc1cc(-c2[nH]c3c(c2Nc2ccccc2)C(=O)CCC3)ccn1", "note": "[Example 382, 1-{4-[4-oxo-3-(phenylamino)-4,5,6,7-tetrahydro-1H-indol-2-yl]pyridin-2-yl}-3-(2,2,2-trifluoroethyl)urea]", "values": [{"measurement": "IC50", "value": 84, "unit": "nM"}]}
{"compound": "CC1(C)CC(=O)c2c([nH]c(-c3cc[n+](CCCO)cc3)c2Nc2ccccc2)C1", "note": "[Example 191, 4-[6,6-dimethyl-4-oxo-3-(phenylamino)-4,5,6,7-tetrahydro-1H-indol-2-yl]-1-(3-hydroxypropyl)pyridinium iodide]", "values": [{"measurement": "IC50", "value": 326, "unit": "nM"}]}
{"compound": "CSc1cnccc1-c1[nH]c2c(c1Nc1ccccc1)C(=O)CC(C)(C)C2", "note": "[Example 201, 6,6-dimethyl-2-[3-(methylsulfanyl)pyridin-4-yl]-3-(phenylamino)-1,5,6,7-tetrahydro-4H-indol-4-one]", "values": [{"measurement": "IC50", "value": 47.4, "unit": "nM"}]}
{"compound": "CC1(C)CC(=O)c2c([nH]c(-c3ccncc3)c2Nc2ccc3ccccc3c2)C1", "note": "[Example 158, 6,6-dimethyl-3-(naphthalen-2-ylamino)-2-(pyridin-4-yl)-1,5,6,7-tetrahydro-4H-indol-4-one]", "values": [{"measurement": "IC50", "value": 95.6, "unit": "nM"}]}
{"compound": "O=C(Cc1ccco1)Nc1cc(-c2[nH]c3c(c2Nc2ccccc2)C(=O)CCC3)ccn1", "note": "[Example 288, 2-(furan-2-yl)-N-{4-[4-oxo-3-(phenylamino)-4,5,6,7-tetrahydro-1H-indol-2-yl]pyridin-2-yl}acetamide]", "values": [{"measurement": "IC50", "value": 16.7, "unit": "nM"}]}
{"compound": "O=C1CCCc2[nH]c(-c3ccnc(Br)c3)c(Nc3ccccc3)c21", "note": "[Example 152, 2-(2-bromopyridin-4-yl)-3-(phenylamino)-1,5,6,7-tetrahydro-4H-indol-4-one]", "values": [{"measurement": "IC50", "value": 239, "unit": "nM"}]}
{"compound": "O=C(Cc1cccs1)Nc1cc(-c2[nH]c3c(c2Nc2ccccc2)C(=O)CCC3)ccn1", "note": "[Example 290, N-{4-[4-oxo-3-(phenylamino)-4,5,6,7-tetrahydro-1H-indol-2-yl]pyridin-2-yl}-2-(thiophen-2-yl)acetamide]", "values": [{"measurement": "IC50", "value": 13.9, "unit": "nM"}]}
{"compound": "O=C1CCCc2[nH]c(-c3ccnc(NC(=O)C4C[C@@H]4F)c3)c(Nc3ccccc3)c21", "note": "(mixture of isomers) [Example 249, rel-(R,S/S,R)-2-fluoro-N-{4-[4-oxo-3-(phenylamino)-4,5,6,7-tetrahydro-1H-indol-2-yl]pyridin-2-yl}cyclopropanecarboxamide]", "values": [{"measurement": "IC50", "value": "16.4 nM and 7.55 nM"}]}
{"compound": "C[C@H](C(=O)Nc1cc(-c2[nH]c3c(c2Nc2ccccc2)C(=O)CCC3)ccn1)N(C)C(=O)OC(C)(C)C", "note": "[Example 301, tert-butyl methyl[(2R)-1-oxo-1-({4-[4-oxo-3-(phenylamino)-4,5,6,7-tetrahydro-1H-indol-2-yl]pyridin-2-yl}amino)propan-2-yl]carbamate]", "values": [{"measurement": "IC50", "value": 738, "unit": "nM"}]}
{"compound": "O=C1CCCc2[nH]c(-c3ccnc(NC(=O)C4C[C@H]4F)c3)c(Nc3ccccc3)c21", "note": "(mixture of isomers) [Example 252, rel-(S,S/R,R)-2-fluoro-N-{4-[4-oxo-3-(phenylamino)-4,5,6,7-tetrahydro-1H-indol-2-yl]pyridin-2-yl}cyclopropanecarboxamide]", "values": [{"measurement": "IC50", "value": 16.6, "unit": "nM"}]}
{"compound": "CC1(C)CC(=O)c2c([nH]c(-c3ccnc(N4CCC4)c3)c2Nc2ccccc2)C1", "note": "[Example 360, 2-[2-(azetidin-1-yl)pyridin-4-yl]-6,6-dimethyl-3-(phenylamino)-1,5,6,7-tetrahydro-4H-indol-4-one]", "values": [{"measurement": "IC50", "value": 12700, "unit": "nM"}]}
